Source: article PMC7467569, “The Progesterone 5β-Reductase/Iridoid Synthase Family: A Catalytic Reservoir for Specialized Metabolism across Land Plants” (ACS Chemical Biology, 2020)

Tests used:
Digitalis purpurea 2 = molecular target: T1, Digitalis purpurea 2 (Digitalis purpurea, UniProt D2JSQ9); assay: NADPH consumption at […] nm; type: biochemical; details: 250 μM NADPH, 50 mM HEPES/NaOH pH 7.0, 100 mM NaCl, 25 °C, 0.1% tetrahydrofuran; read-out: 8-Oxogeranial / KM
T1 construct: gene P5BR2; synthetic gene in pOPINF, N-terminal His6 tag (no cleavage told), E. coli

[1] = molecular target: T2, Catharanthus roseus 5 (PRISE5, ISY) (Catharanthus roseus, UniProt K7WDL7); assay: NADPH consumption at […] nm; type: biochemical; details: read-out: Progesterone / KM; 250 μM NADPH, 50 mM HEPES/NaOH pH 7.0, 100 mM NaCl, 25 °C, 1.5% ethanol
T2 construct: codon-optimized gene from earlier study in pOPINF, N-terminal His6 tag (no cleavage told), E. coli

| Km (Digitalis purpurea 2) | SMILES | Km [1] |
| --- | --- | --- |
| 17.7 ± 5.9 µM | C/C(C=O)=C\CC/C(C)=C/C=O [8-oxogeranial] |  |
|  | CC(=O)[C@H]1CC[C@H]2[C@@H]3CCC4=CC(=O)CC[C@]4(C)[C@H]3CC[C@]12C [progesterone] | 28.8 ± 11.5 µM |
